Reference: patent US10683333B2, “Islet amyloid polypeptides with improved solubility” (The Research Foundation for The State University of New York, priority 2014, dated 2020)
Entries after “also recorded” stand apart in the source; their conditions may differ. Where a SMILES comes first, the peptide text is derived from it. Bridges are numbered along the chain shown (N, C = ends).

Assays:
[1] = Thioflavin-T fluorescence assay of amyloid formation kinetics; assay type: physicochemical; settings: 20 mM Tris-HCl pH 7.4, 25° C., without stirring
Experimental: Each peptide was dissolved into 100% hexafluoroisoproponal (HFIP) to make a 1.6 mM stock solution. Stock solutions were filtered using […] Acrodisc syringe filter with a GHP membrane and the required amount of peptide was lyophilized overnight to remove HFIP. Dry peptide was dissolved into the appropriate buffer for the fluorescence assays. Thioflavin-T binding assays, conducted without HFIP or stirring at 25° C., were utilized to monitor amyloid formation kinetics. Fluorescence measurements were performed using a Beckman Coulter DTX 880 plate reader with a multimode detector using an excitation wavelength of 430 nm and an emission wavelength of 485 nm. Samples were prepared by dissolving dry peptide into Tris-HCl buffer and thioflavin-T solution immediately before the measurement. The final concentrations were 16 μM hIAPP or 160 μM of each analog and 32 μM thioflavin-T in 20 mM Tris-HCl (pH 7.4). After creating mutant hIAPP polypeptides of the present disclosure, applicants tested the propensity of the different analogs to form amyloid at pH 7.4 using thioflavin-T fluorescence assays. […] Amyloid formation follows a sigmoidal time course consisting of a lag phase in which few, if any, fibrils are formed, followed by a growth phase and a saturation phase in which amyloid fibrils are in equilibrium with soluble peptide.

[2] = Transmission electron microscopy (TEM) of samples at end of kinetic experiments; assay type: physicochemical; settings: aliquots at end of kinetic experiment; 16 μM hIAPP, 160 μM analogs, pH 7.4
Experimental: TEM images were collected at the Life Science Microscopy Center at the State University of New York at Stony Brook. 15 μL aliquots of the samples used for fluorescence assays were removed at the end of each kinetic experiment, blotted on a carbon-coated 200-mesh copper grid for 1 min and then negatively stained with saturated uranyl acetate for 1 min. Samples were further analyzed using TEM and CD.

[3] = Far-UV circular dichroism (CD) of aliquots at end of kinetic experiments; assay type: physicochemical; settings: aliquots at end of kinetic experiment, 25° C.
Experimental: Far-UV CD experiments were performed on an Applied Photophysics Chirascan CD spectrophotometer at 25° C. Aliquots from the kinetic experiments were removed at the end of each experiment and the spectra were recorded as the average of three repeats over a range of 190-260 nm, at 1 nm intervals. A 0.1 cm quartz cuvette was used and a background spectrum was subtracted from the data. Samples were further analyzed using TEM and CD.

[4] = assay type: physicochemical; settings: pH 7.4
Experimental: Dry peptides were dissolved into PBS buffer at pH 7.4 at different initial concentrations, and were incubated for 7 days at 25° C. without stirring. Each sample was then centrifuged using a Beckman Coulter Microfuge 22R Centrifuge at 24° C. for 20 min. The relative centrifugal force used was 1.75×10^4 g. Solubility of each sample was approximated by measuring the absorbance of the corresponding supernatant at 280 nm measured using a Beckman Coulter DU 730 UV/Vis Spectrophotometer. All of the peptides contain a single Tyr, 3 Phe and a disulfide bond, thus their extinction coefficients at 280 nm are very similar. The solubility of PM and the mutant hIAPP polypeptides of the present disclosure was analyzed and compared at pH 7.4. Each peptide was incubated in buffer for 7 days at three different concentrations (100 μM, 500 μM and 1 mM) and the solution was then centrifuged. The apparent solubility was represented by the absorbance of the supernatant of each sample measured at 280 nm. […] Additionally, the supernatant of QM sample has a higher absorbance, 0.162, than that of TM-a and PM, 0.103 and 0.112 respectively (FIG. 4A). […] At 1 mM, the absorbance of the soluble fraction of TM-a, TM-b and QM were 1.23, 1.49, and 1.33 respectively, while that value of PM was only 0.354. In comparison, the absorbance of the supernatant of the 1 mM hIAPP was 0.109 (FIGS. 4A-C).

| Structure (SMILES) | amyloid formation monitored by thioflavin-T fluorescence ([1]; 160 μM peptide, about 140 hrs) | fibril morphology in TEM images [2] | time for amyloid formation to reach the saturation phase ([1]; 16 μM hIAPP) | secondary structure by CD spectrum [3] | absorbance of the supernatant at 280 nm (apparent solubility) [4] | solubility at neutral pH compared with PM / wild-type hIAPP [4] |
| --- | --- | --- | --- | --- | --- | --- |
| CC[C@H](C)[C@H](NC(=O)[C@@H]1CCCN1C(=O)CNC(=O)[C@H](Cc1ccccc1)NC(=O)[C@H](CC(N)=O)NC(=O)[C@H](CC(N)=O)NC(=O)[C@H](CO)NC(=O)[C@H](CO)NC(=O)[C@H](Cc1c[nH]cn1)NC(=O)[C@@H](NC(=O)[C@H](CC(C)C)NC(=O)[C@H](Cc1ccccc1)NC(=O)[C@H](CC(N)=O)NC(=O)[C@H](C)NC(=O)[C@H](CC(C)C)NC(=O)[C@H](CCCNC(=N)N)NC(=O)[C@H](CCC(N)=O)NC(=O)[C@@H](NC(=O)[C@H](C)NC(=O)[C@@H]1CSSC[C@H](NC(=O)[C@@H](N)CCCCN)C(=O)N[C@@H](CC(N)=O)C(=O)N[C@@H]([C@@H](C)O)C(=O)N[C@@H](C)C(=O)N[C@@H]([C@@H](C)O)C(=O)N1)[C@@H](C)O)C(C)C)C(=O)N[C@@H](CC(C)C)C(=O)N1CCC[C@H]1C(=O)N1CCC[C@H]1C(=O)N[C@H](C(=O)N[C@@H](CC(N)=O)C(=O)N[C@H](C(=O)NCC(=O)N[C@@H](CO)C(=O)N[C@@H](CC(N)=O)C(=O)N[C@H](C(=O)N[C@@H](Cc1ccc(O)cc1)C(N)=O)[C@@H](C)O)C(C)C)[C@@H](C)O [PM] | flat fluorescence curves; also recorded: do not form amyloid | no fibrils were found | – | – | – | – |
| CC[C@H](C)[C@H](NC(=O)[C@H](C)NC(=O)CNC(=O)[C@H](Cc1ccccc1)NC(=O)[C@H](CC(N)=O)NC(=O)[C@H](CC(N)=O)NC(=O)[C@H](CO)NC(=O)[C@H](CO)NC(=O)[C@H](Cc1c[nH]cn1)NC(=O)[C@@H](NC(=O)[C@H](CC(C)C)NC(=O)[C@H](Cc1ccccc1)NC(=O)[C@H](CC(N)=O)NC(=O)[C@H](C)NC(=O)[C@H](CC(C)C)NC(=O)[C@H](CCCNC(=N)N)NC(=O)[C@H](CCC(N)=O)NC(=O)[C@@H](NC(=O)[C@H](C)NC(=O)[C@@H]1CSSC[C@H](NC(=O)[C@@H](N)CCCCN)C(=O)N[C@@H](CC(N)=O)C(=O)N[C@@H]([C@@H](C)O)C(=O)N[C@@H](C)C(=O)N[C@@H]([C@@H](C)O)C(=O)N1)[C@@H](C)O)C(C)C)C(=O)N[C@@H](CC(C)C)C(=O)N[C@@H](CO)C(=O)N[C@@H](CO)C(=O)N[C@H](C(=O)N[C@@H](CC(N)=O)C(=O)N[C@H](C(=O)NCC(=O)N[C@@H](CO)C(=O)N[C@@H](CC(N)=O)C(=O)N[C@H](C(=O)N[C@@H](Cc1ccc(O)cc1)C(N)=O)[C@@H](C)O)C(C)C)[C@@H](C)O [hIAPP] | – | typical amyloid fibril morphology | ≤ 40 h | β-sheet structure | 0.109 | – |
| CC(C)C[C@H](NC(=O)[C@H](CCCNC(=N)N)NC(=O)[C@H](CCC(N)=O)NC(=O)[C@@H](NC(=O)[C@H](C)NC(=O)[C@@H]1CSSC[C@H](NC(=O)[C@@H](N)CCCCN)C(=O)N[C@@H](CC(N)=O)C(=O)N[C@@H]([C@@H](C)O)C(=O)N[C@@H](C)C(=O)N[C@@H]([C@@H](C)O)C(=O)N1)[C@@H](C)O)C(=O)N[C@@H](C)C(=O)N[C@@H](CC(N)=O)C(=O)N[C@@H](Cc1ccccc1)C(=O)N[C@@H](CC(C)C)C(=O)N[C@H](C(=O)N[C@@H](CCCNC(=N)N)C(=O)N[C@@H](CO)C(=O)N[C@@H](CO)C(=O)N[C@@H](CC(N)=O)C(=O)N[C@@H](CC(N)=O)C(=O)N[C@@H](Cc1ccccc1)C(=O)NCC(=O)N[C@@H](C)C(=O)N1CCC[C@H]1C(=O)N[C@@H](CC(C)C)C(=O)N[C@@H](CO)C(=O)N[C@@H](CO)C(=O)N[C@H](C(=O)N[C@@H](CC(N)=O)C(=O)N[C@H](C(=O)NCC(=O)N[C@@H](CO)C(=O)N[C@@H](CC(N)=O)C(=O)N[C@H](C(=O)N[C@@H](Cc1ccc(O)cc1)C(N)=O)[C@@H](C)O)C(C)C)[C@@H](C)O)C(C)C [DM] (H-KCNTATCATQRLANFLVRSSNNFGAPLSSTNVGSNTY-NH2; disulfide 2-7; N-terminus assumed) | – | – | – | – | – | much better solubility at neutral pH than PM |
